Source: patent US20120309776A1, “PYRROLO[2,3-D]PYRIMIDINE UREA COMPOUNDS AS JAK INHIBITORS” (Pfitzer Inc., priority 2010, published 2012)

System: T-cell proliferation in canine whole blood (ConA and canine IL-2 stimulated)
Assay: Canine in vitro T-cell Proliferation Assay
Assay type: cell-based, beagle dogs
Conditions: Canis lupus familiaris, ConA 1 μg/ml + canine IL-2 50 ng/ml, tritiated thymidine incorporation, average assay results
Description: Introduction: T-cell activation plays a key role in a variety of inflammatory and autoimmune disorders as well as asthma, allergies and pruritus. Since T-cell activation can, in part, can be triggered by cytokines that signal through the JAK-STAT pathway, a JAK inhibitor could be effective against such diseases involving aberrant T-cell activation. […] Methods: Canine whole blood is collected in heparin sulfate tubes from beagle dogs. Whole blood (20 μL) is plated in 96-well plates (Costar) with 180 μL of DMEM complete medium (Dublecco's Modified Eagle Medium; 10% heat inactivated fetal bovine serum; 100 u/ml penicillin; 100 ug/mL streptomycin, from Gibco) containing vehicle control or test compound (0.001 to 10 μM), concanavalin A (ConA; 1 μg/ml), and canine interleukin-2 (IL-2; 50 ng/ml). Wells containing whole blood, medium with vehicle control and no ConA or IL-2 are used as background (BKG) controls. Plates are incubated at 37° C. for 48 hrs. Tritiated thymidine, 0.4 μCi/well (Perkin Elmer), is added for 20 additional hours. Plates are frozen and then thawed, washed and filtered using a Brandel MLR-96 cell harvester and prewet filter mats (Wallac 1205-401, Perkin Elmer). Filters are dried at 60° C. for one hour (Precision 16EG convection oven) and placed into filter sample bags (Wallac 1205-411, Perkin Elmer) with 10 mL of scintillant (Wallac 1205-440, Perkin Elmer). Sealed filters are counted on a LKB Wallac 1205 Betaplate liquid scintillation counter. Data are collected via Gterm Betaplate program v1.1 (Wallac copyright 1989-1990) and transformed into percent inhibition, calculated using the following formula: […]

Row | SMILES | IC50
1 | COc1nsc(NC(=O)N2CC[C@@H](C)[C@@H](N(C)c3ncnc4[nH]ccc34)C2)n1 [Example 2, (3R,4R)-N-(3-methoxy-1,2,4-thiadiazol-5-yl)-4-methyl-3-[methyl(7H-pyrrolo[2,3-d]pyrimidin-4-yl)amino]piperidine-1-carboxamide] | 50 nM
2 | CSc1nc(NC(=O)N2CC[C@@H](C)[C@@H](N(C)c3ncnc4[nH]ccc34)C2)n(C)n1 [Example 4, (3R,4R)-4-methyl-N-[1-methyl-3-(methylsulfanyl)-1H-1,2,4-triazol-5-yl]-3-[methyl(7H-pyrrolo[2,3-d]pyrimidin-4-yl)amino]piperidine-1-carboxamide] | > 10000 nM
3 | C[C@@H]1CCN(C(=O)Nc2nncs2)C[C@@H]1N(C)c1ncnc2[nH]ccc12 [Example 1, (3R,4R)-4-methyl-3-[methyl(7H-pyrrolo[2,3-d]pyrimidin-4-yl)amino]-N-(1,3,4-thiadiazol-2-yl)piperidine-1-carboxamide] | 28.5 nM
4 | Cc1noc(NC(=O)N2CC[C@@H](C)[C@@H](N(C)c3ncnc4[nH]ccc34)C2)c1C#N [Example 3, (3R,4R)-N-(4-cyano-3-methylisoxazol-5-yl)-4-methyl-3-[methyl(7H-pyrrolo[2,3-d]pyrimidin-4-yl)amino]piperidine-1-carboxamide] | > 10000 nM
